# Data from patent US7875587B2, “Peptide analogues of GIP for treatment of diabetes, insulin resistance and obesity” (UUTECH Limited, priority 2004, dated 2011).
# No end group written: not given here.
# Tests used:
# [1] = test system: ob/ob mice; assay: Acute metabolic and dose-response effects with glucose in 18 h fasted ob/ob mice; format: in vivo, mouse; conditions: for overall glucose excursion (glucose AUC) compared to glucose alone: 25 nmoles/kg i.p. with glucose 18 mmoles/kg, 0-60 min; for AUC glucose and insulin in dose-response study: 6.25, 12.5 and 25 nmoles/kg with glucose
# Description: (§1) Animals. Obese diabetic (ob/ob) mice derived from the colony maintained at Aston University, UK were used at 12-17 weeks of age. The genetic background and characteristics of the colony used have been outlined in detail elsewhere (Bailey, C. J. et al., 1982, Int. J. Obesity 6:11-21; Gault, V. A. et al., 2003, J. Endocrinol. 176: 133-141). Animals were housed in an air-conditioned room at 22±2° C. with a 12 hours light: 12 hours dark cycle. Drinking water and standard rodent maintenance diet (Trouw Nutrition, Cheshire, UK) were freely available. All test solutions were administered by i.p. injection in a final volume of 5 ml/kg bw. Blood was collected from the cut tip of the tail vein of conscious mice into chilled fluoride/heparin microcentrifuge tubes immediately prior to injection and at the times indicated in the Figures. Plasma was separated using a Beckman microcentrifuge (Beckman Instruments, UK) at 13,000 g for 30 second and stored at −20° C. prior to glucose and insulin determinations. All animal experiments were carried out in accordance with the UK Animals (Scientific Procedures) Act 1986.
# (§2) Metabolic and dose-response effects of GIP and N-AcGIP(LysPAL) analogues (at 6.25-25 nmoles/kg bw) following glucose administration (18 mmoles/kg bw) were examined in mice fasted for 18 hours. […] Food intake and body weight were recorded daily. Plasma glucose and insulin concentrations were monitored at 2-6 day intervals. At 14 days, groups of animals were used to evaluate intraperitoneal glucose tolerance (18 mmoles/kg) and insulin sensitivity (50 U/kg). In a separate series, two experimental protocols were employed to examine the possibility of GIP receptor desensitization after 14 days treatment. […] At the end of the 14-day treatment period, pancreatic tissues were excised for measurement of insulin following extraction with 5 ml/g ice-cold acid ethanol (75% ethanol, […], 1.5% HCl). Whole blood was taken for determination of glycated hemoglobin.
# (§3) Biochemical analyses. Plasma glucose was assayed by an automated glucose oxidase procedure (Stevens, J. F., 1971, Clin. Chem. Acta 32:199-201) using a Beckman Glucose Analyser II (Beckman, Galway, Ireland). Plasma insulin was determined by dextran-charcoal RIA as described previously (Flatt, P. R. et al., 1981, Diabetologia 20: 573-577). Glycated hemoglobin was determined using cation-exchange columns (Sigma, Poole, Dorset, UK) with measurement of absorbance (415 nm) in wash and eluting buffers using a VersaMax microplate spectrophotometer (Molecular Devices, Wokingham, Berkshire, UK).
# (§4) Statistics. Results are expressed as mean±SEM. Data were compared using the unpaired Student's t-test. Where appropriate, data were compared using repeated measures ANOVA or one-way ANOVA, followed by the Student-Newman-Keuls post hoc test. Incremental areas under plasma glucose and insulin curves (AUC) were calculated using a computer-generated program employing the trapezoidal rule (Burington, R. S., 1973, Handbook of Mathematical Tables and Formulae, McGraw-Hill, New York) with baseline subtraction.
# [2] = test system: ob/ob mice; assay: Once daily i.p. injection for 14 days in ob/ob mice; format: in vivo, mouse; conditions: for body weight / food intake / non-fasting plasma insulin: 14 days; for plasma insulin response to glucose (AUC) / glucose tolerance: after 14 daily injections; for glucose tolerance: i.p. glucose 18 mmoles/kg; for insulin sensitivity: after 14 days, insulin 50 U/kg i.p.
# Description: as §1, §2, §3, §4
# [3] = test system: obese diabetic ob/ob mice; assay: Acute in vivo effects of (Pro3)GIP in obese diabetic ob/ob mice; set-up: species or system mouse
# Description: Acute in vivo effects of (Pro^3)GIP administration in obese diabetic ob/ob mice. Plasma glucose and insulin responses were evaluated using 8- to 12-week old obese diabetic ob/ob mice following intraperitoneal (i.p.) injection of native GIP, (Pro^3)GIP (25 nmol/kg body weight) or saline (0.9% (w/v) NaCl; control) immediately following the combined injection of GIP (25 nmol/kg body weight) with glucose (18 mmol/kg body weight). All test solutions were administered in a final volume of 8 ml/kg body weight. Blood samples were collected from the cut tip of the tail of conscious mice into chilled fluoride/heparin microcentrifuge tubes (Sarstedt, Numbrecht, Germany) immediately prior to injection and at 15, 30 and 60 minutes post injection. Blood samples were immediately centrifuged using a Beckman microcentrifuge (Beckman Instruments, UK) for 30 seconds at 13000 g and stored at −20° prior to glucose and insulin determinations.
# Acute in vivo effects of (Pro^3)GIP on plasma glucose and insulin responses to feeding in obese diabetic ob/ob mice. Plasma glucose and insulin responses were evaluated using 8- to 12-week old ob/ob mice where food was withdrawn for an 18-hour period prior to intraperitoneal injection of saline (0.9% (w/v) NaCl; control) or (Pro^3)GIP (25 nmol/kg body weight). Following injection, the mice were allowed to re-feed for 15 minutes. Blood samples were collected from the cut tip of the tail of conscious mice into chilled fluoride/heparin microcentrifuge tubes (Sarstedt, Numbrecht, Germany) immediately prior to injection and at 15, 30, 60 and 120 minutes post injection. Blood samples were immediately centrifuged using a Beckman microcentrifuge (Beckman Instruments, UK) for 30 seconds at 13000 g and stored at −20° prior to glucose and insulin determinations.
# Determination of HbA1c, plasma glucose and insulin concentrations. HbA1c was measured in whole blood by ion-exchange high-performance liquid chromatography using the Menari HA-8140 kit (BIOMEN, Berkshire, UK). Plasma glucose was assayed by an automated glucose oxidase procedure using a Beckman Glucose Analyzer II (Stevens, J. F., 1971, Clinica Chemica Acta 32:199-201) and plasma insulin was determined by RIA (Flatt, P. R. et al., 1981, Diabetologia 20:573-577). Incremental areas under plasma glucose and insulin curves (AUC) were calculated using a computer generated program (CAREA) employing the trapezoidal rule (Burington, R. S., 1973, Handbook of Mathematical Tables and Formulae, New York, McGraw Hill) with baseline subtraction.
# [4] = 25 nmol/kg i.p., 15 min re-feeding after 18 h fast
Compound,overall glucose excursion (glucose AUC) compared to glucose alone [1],AUC glucose and insulin in dose-response study [1],body weight ([2]; 12.5 nmoles/kg/day),food intake ([2]; 12.5 nmoles/kg/day),non-fasting plasma insulin ([2]; 12.5 nmoles/kg/day),"non-fasting plasma glucose ([2]; 12.5 nmoles/kg/day, at 14 days)",pancreatic weight ([2]; 14 days treatment),plasma insulin response to glucose (AUC) [2],glucose tolerance [2],insulin sensitivity [2],other results
"CC[C@H](C)[C@H](NC(=O)[C@H](CO)NC(=O)[C@H](Cc1ccc(O)cc1)NC(=O)[C@H](CC(=O)O)NC(=O)[C@H](CO)NC(=O)[C@@H](NC(=O)[C@H](Cc1ccccc1)NC(=O)[C@@H](NC(=O)CNC(=O)[C@H](CCC(=O)O)NC(=O)[C@H](C)NC(=O)[C@@H](N)Cc1ccc(O)cc1)[C@@H](C)O)[C@@H](C)CC)C(=O)N[C@@H](C)C(=O)N[C@@H](CCSC)C(=O)N[C@@H](CC(=O)O)C(=O)N[C@@H](CCCCN)C(=O)N[C@H](C(=O)N[C@@H](Cc1c[nH]cn1)C(=O)N[C@@H](CCC(N)=O)C(=O)N[C@@H](CCC(N)=O)C(=O)N[C@@H](CC(=O)O)C(=O)N[C@@H](Cc1ccccc1)C(=O)N[C@H](C(=O)N[C@@H](CC(N)=O)C(=O)N[C@@H](Cc1c[nH]c2ccccc12)C(=O)N[C@@H](CC(C)C)C(=O)N[C@@H](CC(C)C)C(=O)N[C@@H](C)C(=O)N[C@@H](CCC(N)=O)C(=O)N[C@@H](CCCCN)C(=O)NCC(=O)N[C@@H](CCCCN)C(=O)N[C@@H](CCCCN)C(=O)N[C@@H](CC(N)=O)C(=O)N[C@@H](CC(=O)O)C(=O)N[C@@H](Cc1c[nH]c2ccccc12)C(=O)N[C@@H](CCCCN)C(=O)N[C@@H](Cc1c[nH]cn1)C(=O)N[C@@H](CC(N)=O)C(=O)N[C@H](C(=O)N[C@H](C(=O)N[C@@H](CCC(N)=O)C(=O)O)[C@@H](C)O)[C@@H](C)CC)C(C)C)[C@@H](C)CC [GIP 1–42, reference compound]",failed to reach significance,did not significantly affect,no effect,no effect,unchanged,unchanged,did not affect pancreatic weight,had no effect,had no effect,did not affect the characteristic insulin resistance,overall insulinotropic response compared with glucose alone ([1]; 25 nmoles/kg i.p. with glucose): significantly elevated the overall insulinotropic response
CCCCCCCCCCCCCCCC(=O)NCCCC[C@H](NC(=O)[C@H](Cc1c[nH]c2ccccc12)NC(=O)[C@H](CC(=O)O)NC(=O)[C@H](CC(N)=O)NC(=O)[C@H](CCCCN)NC(=O)[C@H](CCCCN)NC(=O)CNC(=O)[C@H](CCCCN)NC(=O)[C@H](CCC(N)=O)NC(=O)[C@H](C)NC(=O)[C@H](CC(C)C)NC(=O)[C@H](CC(C)C)NC(=O)[C@H](Cc1c[nH]c2ccccc12)NC(=O)[C@H](CC(N)=O)NC(=O)[C@@H](NC(=O)[C@H](Cc1ccccc1)NC(=O)[C@H](CC(=O)O)NC(=O)[C@H](CCC(N)=O)NC(=O)[C@H](CCC(N)=O)NC(=O)[C@H](Cc1c[nH]cn1)NC(=O)[C@@H](NC(=O)[C@H](CCCCN)NC(=O)[C@H](CC(=O)O)NC(=O)[C@H](CCSC)NC(=O)[C@H](C)NC(=O)[C@@H](NC(=O)[C@H](CO)NC(=O)[C@H](Cc1ccc(O)cc1)NC(=O)[C@H](CC(=O)O)NC(=O)[C@H](CO)NC(=O)[C@@H](NC(=O)[C@H](Cc1ccccc1)NC(=O)[C@@H](NC(=O)CNC(=O)[C@H](CCC(=O)O)NC(=O)[C@H](C)NC(=O)[C@H](Cc1ccc(O)cc1)NC(C)=O)[C@@H](C)O)[C@@H](C)CC)[C@@H](C)CC)[C@@H](C)CC)C(C)C)C(=O)N[C@@H](Cc1c[nH]cn1)C(=O)N[C@@H](CC(N)=O)C(=O)N[C@H](C(=O)N[C@H](C(=O)N[C@@H](CCC(N)=O)C(=O)O)[C@@H](C)O)[C@@H](C)CC [N-AcGIP(LysPAL^37)],significantly lowered glucose AUC,prominent dose-dependent antihyperglycaemic and insulinotropic actions at all doses administered,no effect,no effect,tendency towards elevated insulin concentrations,significantly (p<0.05) lowered,did not affect pancreatic weight,greater (p<0.01) overall AUC insulin response,significant improvement in glucose tolerance,significant improvement of insulin sensitivity,"antihyperglycaemic effect compared to glucose alone ([1]; 6.25 nmoles/kg with glucose): highly significant antihyperglycaemic properties; insulin response (AUC) compared to glucose alone ([1]; 6.25 nmoles/kg with glucose): 2.0 fold; enhancement of overall glucose-mediated insulin release (AUC) compared to native GIP ([1]; 25 nmoles/kg i.p. with glucose): 2.3 fold; overall glucose excursion compared to native GIP ([1]; 25 nmoles/kg i.p. with glucose): decreased the overall glucose excursion; potency at stimulating insulin secretion relative to N-AcGIP(LysPAL^16) ([1]; 25 nmoles/kg i.p. with glucose): 1.5 fold; glycated hemoglobin ([2]; 12.5 nmoles/kg/day, at 14 days): significantly (p<0.01) decreased; pancreatic insulin content ([2]; 14 days treatment): significantly increased; GIP receptor desensitization ([2]; acute 25 nmoles/kg with glucose after 14 days treatment): lack of GIP receptor desensitization"
YAPGTFISDYSIAMDKIHQQDFVNWLLAQKGKKNDWKHNITQ [(Pro^3)GIP],–,–,–,–,–,–,–,–,–,–,"antagonism of insulin-releasing action of GIP and improvement of glucose tolerance ([3]; 25 nmol/kg i.p. with GIP 25 nmol/kg and glucose 18 mmol/kg): completely antagonised; glycemic excursion compared with glucose alone ([3]; 25 nmol/kg i.p. with GIP and glucose): worse than when glucose was administered alone; glycemic excursion after feeding [3, 4]: worsened; insulin response to feeding [3, 4]: decreased"
